Measurements: patent US12502379B2, “Ponesimod for avoiding worsening of fatigue-related symptoms in multiple sclerosis patients” (Vanda Pharmaceuticals Inc., priority 2019, dated 2025)

Columns and labels:
[1] = system: adult subjects with relapsing MS; assay: Time to first 24-week confirmed disability accumulation (CDA) on EDSS; assay type: in vivo, human
Experimental: (§1) Secondary efficacy variables and testing strategy: Four secondary efficacy endpoints were analyzed as per the statistical testing strategy outlined in FIG. 1. • Change from baseline to Week 108 in fatigue-related symptoms as measured by the symptoms domain of the FSIQ-RMS patient-reported outcome [Fatigue] • Cumulative number of combined unique active lesions from baseline to Week 108 on brain MRI [CUALs] • Time to first 12-week confirmed disability accumulation (CDA) from baseline to EOS on Expanded Disability Status Scale (EDSS) [12-week CDA] • Time to first 24-week CDA from baseline to EOS on EDSS [24-week CDA]
(§2) A 24-week CDA is an increase of at least 1.5 in EDSS for subjects with a baseline EDSS score of 0.0 or an increase of at least 1.0 in EDSS for subjects with a baseline EDSS score of 1.0 to 5.0, or an increase of at least 0.5 in EDSS for subjects with a baseline EDSS score ≥5.5 which is to be confirmed after 24 weeks.
(§3) Baseline EDSS is defined as the last EDSS score recorded prior to randomization. The initial EDSS increase, meeting the above criteria, is defined as the onset of disability accumulation.
(§4) All EDSS measurements (with or without relapse, at a scheduled or unscheduled visit) were used to determine the onset of disability accumulation. […]

[2] = system: adult subjects with relapsing MS; assay: Combined unique active lesions (CUAL) on brain MRI from baseline to Week 108; assay type: in vivo, human
Experimental: as §1
CUAL are new Gd+T1 lesions plus new or enlarging T2 lesions (without double-counting of lesions).
MRI scans were performed at Visits 2 (Baseline), 10 (Week 60), and 14 (EOT) and at any unscheduled visit (U1, U2, etc.). If applicable, MRI scans also were performed at the corresponding visits in the PTOP (Visits 10A and 14A). Testing at all visits were performed up to 7 days prior to or after the visit date.
MRI variables included the number and volume of new and total Gd+ lesions on T1-weighted MRI scans, number of new and enlarging lesions and lesion volume on T2-weighted MRI, and global measures of loss of brain tissue.
T1-weighted imaging before and after i.v. administration of 0.1 mmol/kg body weight (=0.2 mL/kg) of Gd as well as PD-T2-weighted imaging was performed. […]

[3] = system: adult subjects with relapsing MS; assay: Time to first 12-week confirmed disability accumulation (CDA) on EDSS; assay type: in vivo, human
Experimental: as §1
as §2, with “12-week” for “24-week”, “12” for “24”
as §3, §4

[4] = Reasons for premature treatment discontinuation; assay type: in vivo
Experimental: A total of 1468 subjects were screened. Of those, 1133 subjects were randomized (567 to ponesimod 20 mg and 566 to teriflunomide 14 mg) across 162 sites in 28 countries, and 1131 subjects received at least one dose of study drug. The disposition of subjects is summarized in Table 1 and a summary of reasons (primary reason) for treatment discontinuation are shown in Table 2. Overall treatment and study discontinuation were balanced across both treatment arms. A total of 6.5% and 2.5% of the subjects discontinued due to AEs or tolerability related reasons in ponesimod 20 mg and teriflunomide 14 mg, respectively, while 1.9% and 4.3% discontinued due to efficacy related reasons. There were 2 deaths reported during the study—both on teriflunomide 14 mg.

[5] = Treatment-emergent adverse events, Safety Set
Experimental: A prospective, multicenter, randomized, double-blind, active controlled, parallel-group, phase III, superiority study was conducted.
The Safety Set (SAF) included all randomized subjects who received at least one dose of study treatment. Subjects were analyzed based on actual treatment taken, not randomized treatment.

[6] = ponesimod 20 mg vs teriflunomide 14 mg, stratified Cox regression
[7] = ponesimod 20 mg, not statistically significant
[8] = Safety Set, ponesimod 20 mg N = 565, teriflunomide 14 mg N = 566
[9] = ponesimod 20 mg, teriflunomide 14 mg
[10] = Day 1 (ponesimod dose 2 mg per up-titration), Safety Set, N = 565 / 566

CCC/N=C1\S/C(=C\c2ccc(OC[C@H](O)CO)c(Cl)c2)C(=O)N1c1ccccc1C [Ponesimod, (R)-5-[3-chloro-4-(2,3-dihydroxy-propoxy)-benz[Z]ylidene]-2-([Z]-propylimino)-3-o-tolyl-thiazolidin-4-one]
Time to first 24-week CDA, hazard ratio [1, 6]: 0.84
Reduction of the risk of 24-week CDA compared to teriflunomide 14 mg [1, 7]: 16%
Reduction of the number of CUALs between baseline and week 108 compared to teriflunomide 14 mg ([2]; ponesimod 20 mg): 56%
CUAL treatment effect (Rate Ratio) ([2]; ponesimod 20 mg vs teriflunomide 14 mg, baseline to Week 108): 0.44
Time to first 12-week CDA, hazard ratio [3, 6]: 0.83
Reduction of the risk of 12-week CDA compared to teriflunomide 14 mg [3, 7]: 17%
Premature treatment discontinuation: Death [4, 8]: 0 n
Subjects who discontinued due to AEs or tolerability related reasons [4, 9]: 6.5%
AESI effect on heart rate and rhythm (including hypotension) on Day 1: Subjects with at least one AE [5, 10]: 2.1%
AESI heart rate and rhythm on Day 1, PT: Electrocardiogram QT prolonged [5, 10]: 0 n
AESI heart rate and rhythm on Day 1, PT: Presyncope [5, 10]: 0 n
Subject with at least one AE (treatment-emergent) [5, 8]: 88.8%
Subject with at least one AE leading to study drug discontinuation [5, 8]: 8.7%
Subject with at least one Fatal AE [5, 8]: 0 n
Subject with at least one Serious AE [5, 8]: 8.7%
TEAEs leading to premature discontinuation of study drug, SOC: Reproductive system and breast disorders [5, 8]: 0 n
TEAEs leading to premature discontinuation of study drug, SOC: Surgical and medical procedures [5, 8]: 0 n
Treatment-emergent AESI: Hepatobiliary disorders/Liver enzyme abnormality [5, 8]: 25.7%
Treatment-emergent AESI: Hypertension [5, 8]: 10.1%
Treatment-emergent AESI: Pulmonary events [5, 8]: 8.0%
TEAE: ALT increased [5, 9]: 19.5%
TEAE: headache [5, 9]: 11.5%
TEAE: nasopharyngitis [5, 9]: 19.3%
TEAE: upper respiratory tract infection [5, 9]: 10.6%
